Here are results for 2 compounds from patent US8465758B2, “Drug delivery from stents” (Abbott Laboratories, priority 2001, dated 2013).

For series [1], the system named is Yucatan minipigs. In words: 3-month pre-clinical evaluation (QCA stenosis). It counts as in vivo. The following applies: 3 months, not statistically significant (p=0.15). The source says:
After 3 months a trend in favour of the treatment groups was found, with an indication of a dose-response relationship shown in FIG. 5. The stenosis was reduced by 20% and 34% in the low and high dose groups respectively compared to the control.

Series [2] has as its system farm swine. The series is described as follows: One-month pre-clinical assessment (QCA, histomorphometry, histology). It counts as in vivo. The following applies: low dose 0.30 μg per mm^2 of stent, 1 month, control 4.0. An excerpt: A total of 24 stents were implanted in 12 farm swine pigs for 1 month. […] The higher dose was set at the maximum quantity that could be loaded onto the stent.

The test system of series [3] is coronary arteries of farm swine. In words: Re-endothelialisation of batimastat-loaded BiodivYsio stents (SEM). It counts as in vivo. The conditions noted are these: 5 days. An excerpt: BiodivYsio stents (control, low dose batimastat and high dose batimastat) were implanted into healthy farm swine. After 5 days the animals were sacrificed and the stents studied for endothelialisation using scanning electron microscopy.
The stents were implanted into the coronary arteries of farm swine (2 per animal, each in different arteries). After sacrifice, the vessels were excised and trimmed of all extraneous tissue, washed in buffer, and fixed in 2.5% glutaraldehyde at pH 7.4. Fixation was carried out for a minimum of 24-48 hours in 2.5% glutaraldehyde. The section of artery was rinsed in 0.1M cacodylate buffer pH 7.4. The arteries were shipped in 0.1M cacodylate buffer pH 7. The vessels were required to be left whole, i.e. without longitudinal transection. A small V was marked in the proximal end of the vessel to determine vessel orientation. SEM analysis was carried out on three sections of the stented artery and at 2 different magnifications (high and low). The analysis concentrated on the rate and extent of re-endothelisation of the stent struts and the presence of any cellular/biological debris within the stented segment of artery.

Series [4] can be described thus: Batimastat elution from stents in PBS, non flow system. The following applies: coated stents loaded from methanol, after 1 hour, based on total amount loaded. It counts as physicochemical. The procedure:
Elution studies were carried out at 25° C. for up to 1 hour in gently agitated PBS. […] At various time intervals a I ml aliquot was removed and replaced with 1 ml fresh PBS. The stents and water aliquots were measured, see section 1.1.4, to give the amount of drug eluted and the amount of drug remaining on the stents, see section 1.2.1 for results. Samples of eluent from elution studies were injected directly into the system. The sensitivity of the method was 0.010 ppm (0.010 μg/ml).

A short description of series [5]: Pharmacokinetic study, 14C batimastat-loaded BiodivYsio stents in iliac arteries. In kind it is in vivo, New Zealand white rabbit. The conditions noted are these: rabbit iliac arteries, 28 days post-implantation. The source says: The pharmacokinetic studies were initiated to investigate the deposition of drug from the batimastat-loaded BiodivYsio stent.
Series [6] in a line: Solubility of batimastat in ethanol (100%). It counts as physicochemical. An excerpt: This was by preparation of a series of solutions outlined in Table 1
For series [7] the following is noted: P is the partition coefficient; cited from earlier work.

Usually log P stands for the decadic logarithm of the partition coefficient of the neutral form, usually between octanol and water.

For the compound `CNC(=O)[C@H](Cc1ccccc1)NC(=O)[C@H](CC(C)C)[C@H](CSc1cccs1)C(=O)NO` (relative stereo) [batimastat, (2R-(1(S*),2R*,3S*))—N4-hydroxy-N1-(2-(methylamino)-2-oxo-1-(phenylmethypethyl)-2-(2-methylpropyl)-3-((thienylthio)methyl)butanediamide], the “Reduction of stenosis compared to the control (QCA)” value was 34% in series [1] (high dose 0.30±0.13 μg per mm^2 of stent) and 20% in series [1] (low dose 0.03±0.01 μg per mm^2 of stent). In series [2], this compound came in with an Intimal area of 2.5. The “Effect on endothelialisation process in-vivo” value in series [3] (high dose 115.3±16.1 μg per 15 mm stent) and in series [3] (low dose 34.2±1.6 μg per 15 mm stent) was “did not affect the endothelialisation process” each time. In addition, the “Batimastat remaining on the stents” value in series [4] came out at 44%. Also, the “Loaded drug eluted from stent” value in series [5] is recorded as approximately 95%. Also, the Solubility result in series [6] (1.05 mg per ml batimastat in ethanol (100%)) was “clear suspension”; in series [6] (1.13 mg per ml batimastat in ethanol (100%)) it was “fine suspension”; in series [6] (2.6 mg per ml batimastat in ethanol (100%)), “white suspension”.
Consider `C[C@@H]1C[C@H]2[C@@H]3CCC4=CC(=O)C=C[C@]4(C)[C@@]3(F)[C@@H](O)C[C@]2(C)[C@@]1(O)C(=O)CO` [dexamethasone], for which, in series [7], the lipophilicity (log P) is given as 2.55.
